Experimental data taken from publication PMC11750672, “The in vivo metabolic pathway of Deg-AZM and in vitro investigations into the contribution of drug metabolizing enzymes and drug transporters in the drug interactions of Deg-AZM, a clinical-stage new transgelin agonist” (Frontiers in Pharmacology, 2025).

How the values were obtained:
[1] = Exposure profiles of Deg-AZM and metabolites in rat plasma, urine, feces and bile (UPLC-QTOF-MS); assay type: in vivo, rats; details: / = not detected
Experimental: The plasma samples at 0.167 h, 0.5 h, 3 h and 8 h after administration were obtained from the study of tissue distribution in rats ([Gu et al., 2024]). Urine, feces and bile samples at 0–24 h after administration were obtained from the excretion study of a single gavage administration of 25 mg/kg Deg-AZM in rats ([Gu et al., 2024]).
Plasma samples were precipitated with methanol at a ratio of 1:3. Urine samples were diluted with 50% methanol at a ratio of 1:80. The feces was thoroughly ground and sonicated with a 50% methanol at a ratio of 1 g/10 mL to obtain the homogenate, then the homogenate were precipitated with methanol at a ratio of 1:1. Bile samples were precipitated with 50% methanol at a ratio of 1:1. The above obtained samples were vortexed for 1 min and centrifugated at 4°C, 12,000 rpm for 10 min. Finally, the upper layer was analyzed using the UPLC-QTOF-MS system.
The metabolites of Deg-AZM in the plasma, urine, feces and bile samples were identified by UPLC-QTOF-MS system. Liquid chromatography was performed on an ACQUITY UPLC^TM I-Class UPLC unit with a Waters ACQUITY UPLC HSS T3 (100 × 2.1 mm, 1.8 µm). A gradient program was employed with the mobile phase combining solvent A (0.02% formic acid in 5% acetonitrile) and solvent B (acetonitrile) as follows: 100% A (0–0.5 min), 100%–85% A (0.5–7 min), 85%–5% A (7–9 min), 5% A (9–12 min), 5%–100% A (12–15 min). The flow rate was 0.40 mL/min. The column temperature was maintained at 40°C.
A Waters Q-TOF Xevo G2-XS Spectrometer equipped with ESI source under positive ion mode was utilized to conduct mass spectrometry detection, for which the MS^E mode was set at the mass range of 100–1,000 Da. The cone voltage was 40 V. The desolvation temperature was set at 500°C and source temperature was 100°C. The desolvation gas flow rate was 800 L/h and the cone gas flow rate was 50 L/h. In MS^E centroid mode, the MS data were acquired with the low energy function in the trap collision energy (6 eV), and the tandem mass data were acquired with the high energy function in the ramp trap collision energy (35–45 eV).
The extraction ion chromatogram of plasma samples at 0.167 h, 0.5 h, 3 h and 8 h after administration of Deg-AZM in rats was shown in Figure 2. The extraction ion chromatogram of urine, feces and bile samples collected from 0 to 24 h after oral administration of Deg-AZM in rats was shown in Figure 3. The AUC0-t of Deg-AZM and its metabolites in plasma sample were calculated by trapezoidal rule based on the chromatographic peak area. 21 metabolites were found in rat plasma, with M0 (Deg-AZM) and metabolite M2 (demethylated) being the main exposure forms in rat plasma. M0 and M2 accounted for 61.6% and 23.0% of the total related substances in rat plasma, respectively. The relative proportions of Deg-AZM and its metabolites in urine, feces and bile samples were evaluated by the chromatographic peak area, as shown in Figure 4. The detailed proportion of Deg-AZM and its metabolites could be found in Supplementary Table S1. M0 and 28 metabolites were found in the urine of rats. […] M0 and 42 metabolites were found in the feces of rats. Metabolite M1-2 (monohydroxylation, 18.1%) and metabolite M2 (16.6%) were the main forms of fecal excretion of Deg-AZM in rats after oral administration. M0 and 38 metabolites were found in the bile samples of rats. Metabolite M1-2 (monohydroxylation, 19.2%) and metabolite M2 (16.5%) were the main forms of biliary excretion of Deg-AZM in rats after oral administration.

Caco-2 cell monolayer = assay: Bidirectional transport in Caco-2 cell monolayer; assay type: in vitro ADME, human; details: 2, 10 and 50 μM, intake direction
Experimental: (§1) The human colon adenocarcinoma Caco-2 cell line was provided by Institute of Basic Medicine, Chinese Academy of Medical Sciences (Beijing, China). Caco-2 cells were cultured in a high sugar DMEM medium containing 10% (v/v) fetal bovine serum at 37°C and 5% CO2 incubator. Caco-2 cells (2.5 ×10^5/mL) was inoculated into Transwell polycarbonate membrane 12 well plate. The culture medium was changed every 2 days for the first 14 days, and then every day. After 21 consecutive days, fully differentiated cell monolayers were obtained for drug transport assays.
(§2) Transepithelial electrical resistance (TEER) was used to indicate monolayer integrity. The electrode of the Millcell ERS-2 voltammeter was placed in HBSS solution for 20 min to pre-balance. At the same time, the culture medium was removed from the Transwell culture plate, 0.5 mL of pre-heated HBSS solution was added into the Apical (AP) of transwell, 1.5 mL of pre-heated HBSS solution was added into the Basolateral (BL) of transwell. After that, the transwell was balanced at 37°C for 20 min and then replaced the HBSS solution with the pre-heated HBSS solution, the TEER value was measured finally. Caco-2 cell monolayers with TEER >350 Ω cm^2 which means that the cells have formed a tight monolayer, were used for the experiment. The TEER value was calculated according to the following formula: TEER=TEERT ‐ TEERc×A where TEERT represented the TEER value (Ω) of the measured Transwell chamber with Caco-2 cells, TEERC was the TEER value (Ω) of the transwell chamber in the control group, and A was the membrane area of the transwell cavity (1.12 cm^2 in this experiment).
(§3) In order to evaluate the usability of the Transwell model research, [^3H] Propranolol (0.5 μCi/mL) and [^14C] PEG4000 (1 μCi/mL) served as high-permeability and impermeability controls to verify the uptake direction on Caco-2 cell monolayer, respectively. Rhodamine 123 was used as a positive control for efflux mechanism in bidirectional transport assay on Caco-2 cell monolayer.
(§4) The transmembrane permeability of Deg-AZM (2, 10 or 50 µM) and the potential to inhibit P-gp by Deg-AZM (2, 10 or 50 µM) were evaluated using Caco-2 cell monolayer both apical-to-basolateral (A-B) and basolateral-to-apical (B-A) directions at 37°C for 1 h, the experiments were conducted using quinidine (50 μM) as the inhibitor for P-gp. At the end of incubation, receiver and donor samples were both diluted by assay buffer and analyzed by LC-MS/MS.

[2] = Bidirectional transport in Caco-2 cell monolayer; assay type: in vitro ADME, human; details: human, Caco-2, without quinidine
Experimental: as §1, §2, §3, §4

- Papp A→B at 1 h, 2 μM ([2]; 2 μM, 37°C 1 h, n = 3): 0.326 ± 0.0481 ×10⁻⁶ cm/s
- Papp B→A at 1 h, 2 μM ([2]; 2 μM, 37°C 1 h, n = 3): 5.27 ± 0.771 ×10⁻⁶ cm/s
- efflux ratio at 1 h, 2 μM ([2]; 2 μM, read-out: ER): 16.2
- Papp A→B at 1 h, 10 μM ([2]; 10 μM, 37°C 1 h, n = 3): 0.302 ± 0.0416 ×10⁻⁶ cm/s
- Papp B→A at 1 h, 10 μM ([2]; 10 μM, 37°C 1 h, n = 3): 3.7 ± 0.485 ×10⁻⁶ cm/s
- efflux ratio at 1 h, 10 μM ([2]; 10 μM, read-out: ER): 12.2
- Papp A→B at 1 h, 50 μM ([2]; 50 μM, 37°C 1 h, n = 3): 0.316 ± 0.0201 ×10⁻⁶ cm/s
- Papp B→A at 1 h, 50 μM ([2]; 50 μM, 37°C 1 h, n = 3): 3.16 ± 0.401 ×10⁻⁶ cm/s
- efflux ratio at 1 h, 50 μM ([2]; 50 μM, read-out: ER): 10
Compound: CCC1OC(=O)C(C)C(O)C(C)C(O)C(C)(O)CC(C)CN(C)C(C)C(O)C1(C)O (centres unmarked) [Deg-AZM, Deglycosylated azithromycin]
- Proportion in total related substances, Bile ([1]; rat bile 0-24 h, single gavage 25 mg/kg Deg-AZM, by peak area): 7.95%
- Proportion in total related substances, Feces ([1]; rat feces 0-24 h, single gavage 25 mg/kg Deg-AZM, by peak area): 9.12%
- Proportion in total related substances, Plasma ([1]; rat plasma 0.167-8 h after oral Deg-AZM, by AUC0-t of chromatographic peak area): 61.6%
- Proportion in total related substances, Urine ([1]; rat urine 0-24 h, single gavage 25 mg/kg Deg-AZM, by peak area): 62.9%
- Permeability classification (Caco-2 cell monolayer): low permeability drug with poor transmembrane ability
